{P} = phosphate
Columns and labels:
ABCG1 = ABCG1 knockdown efficiency (mRNA) in 3T3-L1 adipocytes; type: cell-based, mouse; settings: mature 3T3-L1 adipocytes, p<0.0005
Description: 3T3-L1 adipocytes. The 3T3-L1 preadipocytes (ATCC) were maintained in Dulbecco's modified Eagle medium (DMEM) supplemented with 10% calf serum and 2 mM glutamine. Differentiation of confluent preadipocytes was initiated with 250 nM insulin, 1250 nM dexamethasone and 250 μM 3-isobutyl-methyl-1-xanthine) in DMEM (4.5 g/L glucose) supplemented with 10% FBS. After 3 days, the culture medium was switched to DMEM (4.5 g/L glucose) supplemented with 10% FBS and 100 nM Insulin for 2 days. Then, 3T3-adipocytes were allowed to mature in DMEM (4.5 g/L glucose) containing 10% FBS, which was replaced every other day for 15 days. […]
(§1) Twenty-four hours following transfection with siRNA, Control and ABCG1 KD cells were washed twice with cold PBS and total RNA was extracted using a NucleoSpin RNA II kit (Macherey-Nagel) according to the manufacturer's instructions. Reverse transcription of RNA and real time quantitative PCR using a LightCycler LC480 (Roche) were performed as previously described (Larrede et al., 2009). Expression data were based on the crossing points calculated with the software for LightCycler data analysis and corrected for PCR efficiencies of the target and the reference gene. When indicated, data were expressed as a fold change in mRNA expression relative to control values.

LPL [1] = test: Secreted LPL activity in culture media of 3T3-L1 adipocytes; type: cell-based, mouse; settings: ABCG1 KD 3T3-L1 adipocytes, p<0.05
Description: (§2) 3T3-L1 adipocytes. The 3T3-L1 preadipocytes (ATCC) were maintained in Dulbecco's modified Eagle medium (DMEM) supplemented with 10% calf serum and 2 mM glutamine. Differentiation of confluent preadipocytes was initiated with 250 nM insulin, 1250 nM dexamethasone and 250 μM 3-isobutyl-methyl-1-xanthine) in DMEM (4.5 g/L glucose) supplemented with 10% FBS. After 3 days, the culture medium was switched to DMEM (4.5 g/L glucose) supplemented with 10% FBS and 100 nM Insulin for 2 days. Then, 3T3-adipocytes were allowed to mature in DMEM (4.5 g/L glucose) containing 10% FBS, which was replaced every other day for 15 days.
(§3) Cell culture medium from either macrophage or adipocyte cultures was replaced by a serum-free medium containing 10 U/mL heparin (Choay) and the cells were subsequently incubated for 24 h at 37° C. Culture medium was then collected and stored at −80° C. until determination of LPL activity and cells were lysed overnight in 0.2 N NaOH. Cell protein was quantified using the BCA assay (Pierce). LPL activity was determined using a 50-μl aliquot of culture medium ( 1/10 of total volume), or plasma when indicated, according to the procedure previously described (Stengel et al., 1998). Results are expressed as units of LPL activity (1 U of LPL activity correspond to 1 nmol free fatty acid liberated/min/mg cell protein). […]

3T3-L1 preadipocytes = test: Cellular triglyceride content during maturation of 3T3-L1 preadipocytes into adipocytes; type: cell-based, mouse; settings: silencing in preadipocytes at D0; after 4 days of differentiation, p<0.05
Description: as §2
(§4) Quantification of total cellular triglyceride and cholesterol mass was performed as previously described (Milosavljevic et al., 2003).
(§5) Ten-day differentiated HMDM were grown in 24-well plates and transfected with 50 nM control siRNA (Dharmacon) or siRNA targeting human ABCG1 using lipofectamine RNAiMax (Invitrogen) according to the manufacturer's instructions. Transfection of 3T3-L1 preadipocytes and mature adipocytes with siRNA was achieved using the Nucleofector® technology (Lonza) according to the manufacturer's protocol. For each experiment, 2×10^6 cells and 100 pmol siRNA were diluted in 100 μl of V solution and processed with A-033 program.

LPL mRNA = LPL mRNA levels by real-time quantitative PCR in HMDM; type: cell-based, human; settings: ABCG1 KD HMDM, p<0.05
Description: as §5, §1

human ABCG1 = test: siRNA silencing of ABCG1 in HMDM, Western blot of total ABCG1 protein; type: cell-based; settings: HMDM transfected with 50 nM siRNA vs control siRNA
Description: (§6) Human Macrophages. Human THP-1 monocytic cells (ATCC) and a THP-1 clone stably transfected with an shRNA targeting human ABCG1, in which ABCG1 expression is stably knocked down (ABCG1 SKD), were cultured and differentiated into macrophage-like cells as previously described (Larrede et al., 2009). Circulating human monocytes were isolated from the blood of individual healthy normolipidemic donors (Etablissement Français du Sang, EFS) on Ficoll gradients (Ficoll-Paque PLUS, GE Healthcare) and subsequently differentiated into human macrophages (HMDM) following the procedure previously reported (Larrede et al., 2009).
Silencing of ABCG1 expression was performed by application of siRNA oligonucleotides (Dharmacon) targeted to the cDNA sequence of either the human ABCG1 gene (Genebank #AY048757):
Ten-day differentiated HMDM were grown in 24-well plates and transfected with 50 nM control siRNA (Dharmacon) or siRNA targeting human ABCG1 using lipofectamine RNAiMax (Invitrogen) according to the manufacturer's instructions. […]
Cell proteins were extracted using 200 μL M-PER reagent (Pierce) containing protease inhibitors and were subsequently separated on a 4-12% Bis-Tris gel (Invitrogen). […] ABCG1 was detected using rabbit anti-hABCG1 (NB400-132; Novus) at 1:500 and goat anti-rabbit/HRP (Dako) at 1:15000.

LPL [2] = test: Secreted LPL activity in culture media of HMDM after heparin; type: cell-based, human; settings: ABCG1 KD HMDM, after heparin treatment, p=0.02
Description: as §6, §3

[3] = system: SDC1, SDC2, VLDL-r, LRP, apoE, LDL-r; test: Relative mRNA levels of proteoglycan core proteins, lipoprotein receptors and apoE in HMDM; type: cell-based, human
Description: as §5, §1

LPL [4] = test: Confocal microscopy of LPL at the cell surface of HMDM; type: cell-based, human; settings: ABCG1 KD HMDM vs control
Description: Cells were blocked for 60 minutes with 3% BSA in PBS and then incubated with an anti-hLPL antibody (Abcam; 1:300) overnight at 4° C. After washing, a biotinylated goat anti-mouse IgG secondary antibody (1:1000; BD Pharmingen) was added, followed by the addition of streptavidin-horseradish peroxidase. The signal was enhanced using the tyramide signal amplification (TSA) kit (PerkinElmer) according to the manufacturer's protocol; cells were counterstained for nuclei with DAPI (Invitrogen). Confocal microscopy was performed using a Right confocal microscope Olympus FV-1000 with a 60× objective.

[5] = system: human monocyte-derived macrophages (HMDM); test: VLDL-induced cellular triglyceride and cholesterol accumulation in HMDM; type: cell-based; settings: 50 μg/mL VLDL, 24 h
Description: as §4, §5

LPL [6] = test: Flow cytometry of cell surface LPL in THP-1 macrophages; type: cell-based, human; settings: ABCG1 KD THP-1 macrophages, p<0.05
Description: as §6
Human THP-1 macrophages were cultured in 12-well plates (2.106 cells/well) and incubated in serum-free media in the presence or in the absence of 10 U/mL heparin (Choay) for 24 h at 37° C. following siRNA transfection. Cells were then washed and harvested in cold PBS. After brief centrifugation (2000 rpm, […]) at 4° C., cells were pre-incubated with 100 μl of human Fc Blocker (BD Pharmingen; 1:400 in PBS/BSA 1%) for 10 min at 4° C., and incubated with a monoclonal mouse antibody directed against human LPL (abcam; 1:100) for a further 15 min at 4° C. […] Cells were analyzed on an FC 500 flow cytometer (Beckman Coulter) using Epics XL32 software.

For “5′-GCGAAGCUGUACCUGGAUU-UU / 5′-P-AAUCCAGGUACAGCUUCGC-UU-3′ (sense GCGAAGCUGUACCUGGAUUUU; antisense AAUCCAGGUACAGCUUCGCUU; siRNA; sense: RNA, backbone not given here; antisense: RNA, 5' {P}, backbone not given here) [siRNA targeting mouse Abcg1]”, the “inhibition of ABCG1 (mRNA), change vs control” value (ABCG1) was −77%, the “LPL activity in media, change vs control cells” value (LPL [1]) was −81% and the “intracellular TG accumulation during adipocyte maturation, change vs control cells” value (3T3-L1 preadipocytes) was −22%.
“5′-UCAUUGGCCUGCUGUACUU-UU-3 / 5′-P-AAGUACAGCAGGCCAAUGA-UU-3′ (sense UCAUUGGCCUGCUGUACUUUU; antisense AAGUACAGCAGGCCAAUGAUU; siRNA; sense: RNA, backbone not given here; antisense: RNA, 5' {P}, backbone not given here) [siRNA specific for the human ABCG1 gene]” was tested, and the “LPL expression (mRNA), change vs control HMDM” value (LPL mRNA) was “+28%”, the “ABCG1 expression (total ABCG1 protein, Western blot)” value (human ABCG1) was “almost complete abolition” and the “secreted LPL activity, change vs control HMDM” value (LPL [2]) was −52%. The “relative mRNA levels of SDC1, SDC2, VLDL-r, LRP and apoE” value ([3]; ABCG1 KD human macrophages vs control) was “not altered”, the “LDL-receptor (LDL-r) expression, induction vs control cells” value ([3]; ABCG1 KD macrophages, p<0.01) was 2 fold and the “abundance of LPL detected at the cell surface after heparin treatment” value (LPL [4]; 10 U/mL heparin) was “still remained higher than that in control HMDM”. The “LPL expression at the cell surface (confocal microscopy)” value (LPL [4]; without heparin) was “much more pronounced than in control cells”, the “VLDL-induced accumulation of cholesterol” value ([5]; ABCG1 KD HMDM) was “completely abolished” and the “VLDL-induced accumulation of TG, change vs control cells” value ([5]; ABCG1 KD HMDM, p<0.01) was −38%. For the same molecule, the “expression of LPL at the cell surface (flow cytometry), change vs control cells” value (LPL [6]) was “+48%”.
In the case of CCCCCCCCCCC[C@@H](C[C@@H]1OC(=O)[C@H]1CCCCCC)OC(=O)[C@H](CC(C)C)NC=O [THL, Tetrahydrolipstatin, reference compound], the “TC accumulation induced by VLDL, change” value ([5]; control HMDM, 10 μM THL) is reported as −75% and the “TG accumulation induced by VLDL, change” value ([5]; control HMDM, 10 μM THL) is reported as −43%.

Source: US20130289099A1, “ABCG1 GENE AS A MARKER AND A TARGET GENE FOR TREATING OBESITY” (UNIVERSITE PIERRE ET MARIE CURIE (PARIS 6), priority 2010, published 2013)
